Data from paper PMC3488456 (Bioorganic & medicinal chemistry letters, 2012).

Experiments:
Rat pharmacokinetics = format: in vivo, Sprague-Dawley rats; conditions: for clearance: Sprague-Dawley, rat, in vivo, iv, 1 mg/kg
Rev-erbα = target: T1, Rev-erbα (Homo sapiens, UniProt P20393); format: cell-based
T1 sequence (P20393 1-614): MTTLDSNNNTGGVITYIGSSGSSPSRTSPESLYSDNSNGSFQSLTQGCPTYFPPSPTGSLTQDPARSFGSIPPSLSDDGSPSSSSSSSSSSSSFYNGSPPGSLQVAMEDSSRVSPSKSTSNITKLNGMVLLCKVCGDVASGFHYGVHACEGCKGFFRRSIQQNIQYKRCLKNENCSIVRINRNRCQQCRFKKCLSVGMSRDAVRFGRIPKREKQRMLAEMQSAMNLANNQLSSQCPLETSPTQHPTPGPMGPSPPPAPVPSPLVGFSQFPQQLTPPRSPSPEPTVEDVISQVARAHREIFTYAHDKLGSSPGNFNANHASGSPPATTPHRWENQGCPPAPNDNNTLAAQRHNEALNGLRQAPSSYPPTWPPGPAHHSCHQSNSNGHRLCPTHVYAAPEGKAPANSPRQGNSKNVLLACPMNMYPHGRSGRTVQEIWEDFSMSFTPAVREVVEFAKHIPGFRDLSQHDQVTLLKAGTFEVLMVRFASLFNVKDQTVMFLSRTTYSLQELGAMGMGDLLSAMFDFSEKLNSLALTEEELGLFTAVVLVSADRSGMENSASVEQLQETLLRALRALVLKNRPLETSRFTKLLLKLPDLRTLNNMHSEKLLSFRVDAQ

LRH1 = conditions: same FRET assay; cited from earlier work
RORα = conditions: same FRET assay; cited from earlier work
SF1 = conditions: same FRET assay; cited from earlier work
FXR = conditions: same FRET assay; cited from earlier work
LXRα = conditions: reporter-gene assay; cited from earlier work
Mouse brain penetration = format: in vivo, C57Bl6 mice; conditions: mice
LXRβ = conditions: reporter-gene assay; cited from earlier work

O=C(c1cccc2ccccc12)N1Cc2ccccc2CC1COCc1ccccc1 (centres unmarked) [Compound 6d]
clearance (Rat pharmacokinetics): 39 mL/min/kg
oral bioavailability / oral absorption (in words) (Rat pharmacokinetics; rats): poor oral absorption

CCOC(=O)C1Cc2ccccc2CN1C(=O)c1ccno1 (centres unmarked) [Compound 3n]
EC50 (Rev-erbα): 2500 nM

O=C(c1cccc2ccccc12)N1Cc2ccccc2CC1CNCc1ccccc1 (centres unmarked) [Compound 7d]
clearance (Rat pharmacokinetics): 43 mL/min/kg
oral bioavailability / oral absorption (in words) (Rat pharmacokinetics; rats): poor oral absorption

CC(C)(C)OC(=O)CN(Cc1ccc(Cl)cc1)Cc1ccc([N+](=O)[O-])s1 [Compound 1]
activity on LRH1 (LRH1): no activity
activity on RORα (RORα): no activity
clearance (Rat pharmacokinetics): 353 mL/min/kg
oral bioavailability / oral absorption (in words) (Rat pharmacokinetics; rats): poor oral bioavailability
plasma clearance (in words) (Rat pharmacokinetics; rats): very high plasma clearance
volume of distribution (in words) (Rat pharmacokinetics; rats): high volume of distribution
rodent pharmacokinetics (in words) (Rat pharmacokinetics; rodent): poor
activity on SF1 (SF1): no activity
activity on FXR (FXR): no activity
activity on LXRα (LXRα): no activity
brain penetration (in words) (Mouse brain penetration): good brain penetration
activity on LXRβ (LXRβ): no activity
